Assays:
[1] = target: Histamine H3 receptor (Homo sapiens) (UniProt Q9Y5N1); details: Compound concentration 10.0 uM
[2] = target: Beta-1 adrenergic receptor (Homo sapiens) (UniProt P08588); details: Compound concentration 10.0 uM
[3] = target: Glutamate receptor ionotropic, kainate (Rattus norvegicus) (UniProt P22756+Q01812+P42260+P42264+Q63273); assay: Inhibition of Glutamate, Kainate at 10 µM in the Eurofins-Panlabs radioligand binding assay (Eurofins_assay_232700); details: Compound concentration 10.0 uM
[4] = target: Prostaglandin E2 receptor EP2 subtype (Homo sapiens) (UniProt P43116); assay: Prostanoid EP2 Eurofins-Panlabs radioligand binding assay; design: ligand concentration 4 nM
[5] = target: T1, Muscarinic acetylcholine receptor M4 (Homo sapiens) (UniProt P08173); details: Compound concentration 10.0 uM
T1 sequence (whole entry): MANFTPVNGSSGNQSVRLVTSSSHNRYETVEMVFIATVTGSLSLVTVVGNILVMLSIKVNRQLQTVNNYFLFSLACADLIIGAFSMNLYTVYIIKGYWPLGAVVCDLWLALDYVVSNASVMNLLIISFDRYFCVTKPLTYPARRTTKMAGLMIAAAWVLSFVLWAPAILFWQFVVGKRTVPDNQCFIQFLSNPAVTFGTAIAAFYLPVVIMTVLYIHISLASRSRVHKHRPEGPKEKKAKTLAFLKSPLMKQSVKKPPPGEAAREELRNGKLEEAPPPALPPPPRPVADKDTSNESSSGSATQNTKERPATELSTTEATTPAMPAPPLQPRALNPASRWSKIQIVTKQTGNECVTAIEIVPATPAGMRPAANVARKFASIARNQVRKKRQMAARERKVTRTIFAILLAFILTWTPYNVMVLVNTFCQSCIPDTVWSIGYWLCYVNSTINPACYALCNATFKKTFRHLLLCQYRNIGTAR

[6] = target: Adenosine Transporter (Cavia porcellus) (UniProt H0V4R7+H0UUG1+H0V3Z5); assay: Inhibition of Transporter, Adenosine at compound concentration of 10.0 uM in the Eurofins-Panlabs radioligand binding assay (Eurofins_assay_202000); assay type: protein assay; design: ligand concentration 0.5 nM, non-specific ligand with concentration 5 uM Nitrobenzylthioinosine, incubation time 30 min, incubation temperature 25 C; details: Compound concentration 10.0 uM
[7] = target: Kappa-type opioid receptor (Homo sapiens) (UniProt P41145); details: Compound concentration 10.0 uM
[8] = target: Mu-type opioid receptor (Homo sapiens) (UniProt P35372); details: Compound concentration 10.0 uM
[9] = target: Type-2 angiotensin II receptor (Homo sapiens) (UniProt P50052); details: Compound concentration 10.0 uM
[10] = target: Prostaglandin E2 receptor EP4 subtype (Homo sapiens) (UniProt P35408); assay: Inhibition of Prostanoid EP4 at 10 µM in the Eurofins-Panlabs radioligand binding assay (Eurofins_assay_268420); design: ligand concentration 1 nM
[11] = target: Adenosine receptor A1 (Homo sapiens) (UniProt P30542); details: Compound concentration 10.0 uM
[12] = target: D(1A) dopamine receptor (Homo sapiens) (UniProt P21728); details: Compound concentration 10.0 uM
[13] = target: T2, 5-hydroxytryptamine receptor 1A (Homo sapiens) (UniProt P08908); details: Compound concentration 10.0 uM
T2 sequence (whole entry): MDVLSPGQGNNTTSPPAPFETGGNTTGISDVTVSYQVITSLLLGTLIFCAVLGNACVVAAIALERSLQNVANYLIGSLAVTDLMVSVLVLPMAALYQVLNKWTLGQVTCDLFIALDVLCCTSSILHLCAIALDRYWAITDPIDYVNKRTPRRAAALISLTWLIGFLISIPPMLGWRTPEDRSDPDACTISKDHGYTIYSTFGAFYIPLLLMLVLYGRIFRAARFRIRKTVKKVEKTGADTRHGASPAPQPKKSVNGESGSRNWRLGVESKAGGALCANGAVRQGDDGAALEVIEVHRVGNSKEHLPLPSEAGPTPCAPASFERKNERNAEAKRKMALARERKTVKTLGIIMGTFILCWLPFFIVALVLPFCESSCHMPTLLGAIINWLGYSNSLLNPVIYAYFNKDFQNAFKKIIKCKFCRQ

[14] = Compound concentration 0.001 uM

Measured: inhibition

Prostaglandin E2 receptor EP4 subtype (Homo sapiens), sequence (P35408 whole entry): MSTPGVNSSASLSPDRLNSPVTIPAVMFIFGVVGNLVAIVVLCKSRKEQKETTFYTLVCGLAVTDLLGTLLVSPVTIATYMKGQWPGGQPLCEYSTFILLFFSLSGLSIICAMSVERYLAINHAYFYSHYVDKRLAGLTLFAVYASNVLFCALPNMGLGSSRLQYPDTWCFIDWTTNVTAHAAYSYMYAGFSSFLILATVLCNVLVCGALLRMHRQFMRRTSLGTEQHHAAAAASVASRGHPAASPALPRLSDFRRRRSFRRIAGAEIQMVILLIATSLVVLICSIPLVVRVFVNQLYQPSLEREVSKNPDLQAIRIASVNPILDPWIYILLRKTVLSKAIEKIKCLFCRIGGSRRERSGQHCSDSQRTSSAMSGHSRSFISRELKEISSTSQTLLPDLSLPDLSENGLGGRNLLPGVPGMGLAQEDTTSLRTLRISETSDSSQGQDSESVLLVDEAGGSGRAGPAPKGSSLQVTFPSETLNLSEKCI
Prostaglandin E2 receptor EP2 subtype (Homo sapiens), sequence (P43116 whole entry): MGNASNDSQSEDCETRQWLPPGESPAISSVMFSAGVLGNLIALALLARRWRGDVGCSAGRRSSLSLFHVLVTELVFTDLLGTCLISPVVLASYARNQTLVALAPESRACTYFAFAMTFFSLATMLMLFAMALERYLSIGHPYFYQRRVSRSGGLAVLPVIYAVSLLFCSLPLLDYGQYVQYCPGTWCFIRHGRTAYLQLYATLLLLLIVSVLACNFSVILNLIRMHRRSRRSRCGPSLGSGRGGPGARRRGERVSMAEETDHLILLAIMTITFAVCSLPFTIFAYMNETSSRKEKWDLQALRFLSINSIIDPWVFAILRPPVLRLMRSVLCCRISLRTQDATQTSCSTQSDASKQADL
Beta-1 adrenergic receptor (Homo sapiens), sequence (P08588 whole entry, looked up): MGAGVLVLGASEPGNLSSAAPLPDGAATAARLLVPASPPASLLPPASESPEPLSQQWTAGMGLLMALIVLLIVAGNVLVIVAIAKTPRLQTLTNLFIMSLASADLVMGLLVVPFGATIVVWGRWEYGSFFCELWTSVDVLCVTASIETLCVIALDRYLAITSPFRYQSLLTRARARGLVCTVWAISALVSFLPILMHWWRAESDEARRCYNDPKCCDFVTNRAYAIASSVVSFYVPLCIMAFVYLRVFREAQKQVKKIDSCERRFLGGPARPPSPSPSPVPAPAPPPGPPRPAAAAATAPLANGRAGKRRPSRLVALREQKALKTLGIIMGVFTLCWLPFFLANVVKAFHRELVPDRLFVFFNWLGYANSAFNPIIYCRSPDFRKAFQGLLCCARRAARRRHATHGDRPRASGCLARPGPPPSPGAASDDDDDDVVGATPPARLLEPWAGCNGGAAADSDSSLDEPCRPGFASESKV
Histamine H3 receptor (Homo sapiens), sequence (Q9Y5N1 whole entry): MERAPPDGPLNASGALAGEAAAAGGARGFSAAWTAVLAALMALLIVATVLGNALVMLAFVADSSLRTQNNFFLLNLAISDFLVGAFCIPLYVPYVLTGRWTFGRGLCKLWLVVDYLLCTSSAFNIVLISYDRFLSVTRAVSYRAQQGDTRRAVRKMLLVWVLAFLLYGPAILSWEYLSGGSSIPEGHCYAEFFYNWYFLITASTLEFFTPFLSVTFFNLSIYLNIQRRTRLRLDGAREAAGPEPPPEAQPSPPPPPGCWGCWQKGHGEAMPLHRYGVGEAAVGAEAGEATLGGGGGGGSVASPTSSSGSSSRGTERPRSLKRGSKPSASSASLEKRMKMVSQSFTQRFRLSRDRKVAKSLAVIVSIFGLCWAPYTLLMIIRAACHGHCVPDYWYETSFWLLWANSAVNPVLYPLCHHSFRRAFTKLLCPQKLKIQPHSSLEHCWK
Mu-type opioid receptor (Homo sapiens), sequence (P35372 whole entry): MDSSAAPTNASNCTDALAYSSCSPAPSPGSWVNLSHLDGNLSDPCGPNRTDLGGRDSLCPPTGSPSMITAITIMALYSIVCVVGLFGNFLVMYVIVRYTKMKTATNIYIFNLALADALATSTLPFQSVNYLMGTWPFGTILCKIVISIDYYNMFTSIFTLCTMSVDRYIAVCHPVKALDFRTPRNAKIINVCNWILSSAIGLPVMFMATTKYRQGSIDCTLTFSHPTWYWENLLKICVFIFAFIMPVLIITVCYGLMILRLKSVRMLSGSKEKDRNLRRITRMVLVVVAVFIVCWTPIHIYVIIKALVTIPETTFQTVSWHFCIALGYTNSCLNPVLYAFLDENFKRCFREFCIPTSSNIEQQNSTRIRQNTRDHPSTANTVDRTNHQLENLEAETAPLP
Adenosine receptor A1 (Homo sapiens), sequence (P30542 whole entry): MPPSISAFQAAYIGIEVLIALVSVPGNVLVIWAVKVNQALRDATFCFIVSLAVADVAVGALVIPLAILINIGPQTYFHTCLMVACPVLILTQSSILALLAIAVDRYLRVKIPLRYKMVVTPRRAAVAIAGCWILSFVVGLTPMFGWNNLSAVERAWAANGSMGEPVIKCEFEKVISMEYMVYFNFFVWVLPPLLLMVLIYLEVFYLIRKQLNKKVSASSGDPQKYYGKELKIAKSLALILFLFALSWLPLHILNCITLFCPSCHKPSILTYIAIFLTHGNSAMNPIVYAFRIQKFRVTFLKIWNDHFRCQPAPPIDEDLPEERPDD
Kappa-type opioid receptor (Homo sapiens), sequence (P41145 whole entry): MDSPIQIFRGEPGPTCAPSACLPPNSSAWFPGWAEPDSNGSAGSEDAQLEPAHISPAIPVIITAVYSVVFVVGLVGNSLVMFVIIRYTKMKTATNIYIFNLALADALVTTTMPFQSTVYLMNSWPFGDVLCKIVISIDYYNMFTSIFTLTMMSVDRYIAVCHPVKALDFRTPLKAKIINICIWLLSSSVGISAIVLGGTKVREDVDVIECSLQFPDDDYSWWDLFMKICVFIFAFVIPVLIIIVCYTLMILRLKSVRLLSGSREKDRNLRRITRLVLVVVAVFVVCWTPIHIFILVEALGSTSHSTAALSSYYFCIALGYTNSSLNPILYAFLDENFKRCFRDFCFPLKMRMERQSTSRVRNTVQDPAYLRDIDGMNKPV
D(1A) dopamine receptor (Homo sapiens), sequence (P21728 whole entry): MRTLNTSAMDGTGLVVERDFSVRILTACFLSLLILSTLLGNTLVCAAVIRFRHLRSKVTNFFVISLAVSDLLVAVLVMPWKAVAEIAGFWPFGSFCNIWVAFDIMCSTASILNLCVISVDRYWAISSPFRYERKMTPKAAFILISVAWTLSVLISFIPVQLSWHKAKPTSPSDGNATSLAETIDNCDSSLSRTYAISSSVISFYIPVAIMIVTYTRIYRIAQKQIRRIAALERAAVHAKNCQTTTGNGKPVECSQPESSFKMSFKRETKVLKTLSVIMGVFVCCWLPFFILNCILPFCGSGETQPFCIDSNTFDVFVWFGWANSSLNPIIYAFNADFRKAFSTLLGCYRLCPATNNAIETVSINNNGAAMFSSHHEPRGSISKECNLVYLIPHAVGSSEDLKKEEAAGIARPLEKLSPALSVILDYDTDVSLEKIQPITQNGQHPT
Type-2 angiotensin II receptor (Homo sapiens), sequence (P50052 whole entry): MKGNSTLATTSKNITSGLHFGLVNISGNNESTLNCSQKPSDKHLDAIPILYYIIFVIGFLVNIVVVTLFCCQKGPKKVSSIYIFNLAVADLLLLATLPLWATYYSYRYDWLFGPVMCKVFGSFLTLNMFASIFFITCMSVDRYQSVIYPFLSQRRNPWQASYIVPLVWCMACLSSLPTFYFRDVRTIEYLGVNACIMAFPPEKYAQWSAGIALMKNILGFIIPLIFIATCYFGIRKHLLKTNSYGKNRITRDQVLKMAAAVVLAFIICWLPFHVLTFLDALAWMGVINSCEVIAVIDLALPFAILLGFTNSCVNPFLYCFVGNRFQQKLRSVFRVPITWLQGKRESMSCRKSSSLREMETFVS

Cc1c(N2CCNCC2)nc2ccc(Br)cc2c1C(=O)NC[C@H](CCC(=O)O)c1ccccc1Cl [BAY-403]
inactive: [1] 16.9%

Cc1c(N2CCCC2)nc2ccc(Br)cc2c1C(=O)NC[C@H](CCC(=O)O)c1ccccc1Cl [BAY-6672]
inactive: [2] 3% | [3] 11% | [4]; [14] 4% | [4]; Compound concentration 0.01 uM -2% | [4]; Compound concentration 0.1 uM 3% | [4]; Compound concentration 1.0 uM 15% | [4]; Compound concentration 10.0 uM 4% | [5] 6% | [6] 10% | [7] 15% | [8] 21% | [9] 2% | [10]; [14] -6% | [10]; Compound concentration 0.01 uM -1% | [10]; Compound concentration 0.1 uM 6% | [10]; Compound concentration 1.0 uM 17% | [10]; Compound concentration 10.0 uM 48% | [11] 5% | [12] 1% | [13] 3%
